A short description of data set [1]: Stability (degradation) of pharmaceutical preparations at 40° C. and 70% relative humidity. The class given is physicochemical. To be noted: three-month period, compared to bromocriptine mesylate. As to the method: Pharmaceutical preparations of bromocriptine mesylate and bromocriptine citrate are exposed to atmospheric conditions (40° C. and 70% relative humidity) and the degradation of the bromocriptine is assessed over time.

Data set [2] in a line: Aqueous solubility/dissolution of bromocriptine citrate relative to bromocriptine mesylate. The format is physicochemical. To be noted: various pH conditions, compared to bromocriptine mesylate. As to the method:
Solid samples of equal amounts of bromocriptine mesylate and bromocriptine citrate added, under various pH conditions, to equal volumes of water or water/organic solutions in different vessels and the dissolution of the bromocriptine samples (aqueous solubility) was assessed over time.

Consider “2-bromo-alpha-ergocryptine citrate [bromocriptine citrate]”, for which, in data set [1], the “degradation of the bromocriptine” value is “substantially less”. Further, the rate of dissolution entry in data set [2] (solid samples in water or water/organic solutions) is “dissolve much more quickly”. The “aqueous solubility (mg of bromocriptine dissolved per ml of water)” value in data set [2] (water or water/organic solutions) is “significantly greater solubility”.

These data come from patent US12668590B2, “Composition and method for treating metabolic disorders” (priority 2016, dated 2026).
